According to article PMC4873255 (Bioorganic & medicinal chemistry letters, 2015):

Assays:
[1] = biological target: μ opioid receptors (Cavia porcellus, UniProt P97266); assay: cell-based; set-up: species or system guinea pig
[2] = biological target: δ opioid receptors (Mus musculus, UniProt P32300); assay: cell-based
[3] = biological target: rat μ-opioid receptors (rMOR) (Rattus norvegicus, UniProt P33535); assay: biochemical; assay type: binding
[4] = biological target: human δ opioid receptors (hDOR) (Homo sapiens, UniProt P41143); assay: biochemical; assay type: binding
human δ opioid receptors (hDOR), sequence (P41143 whole entry): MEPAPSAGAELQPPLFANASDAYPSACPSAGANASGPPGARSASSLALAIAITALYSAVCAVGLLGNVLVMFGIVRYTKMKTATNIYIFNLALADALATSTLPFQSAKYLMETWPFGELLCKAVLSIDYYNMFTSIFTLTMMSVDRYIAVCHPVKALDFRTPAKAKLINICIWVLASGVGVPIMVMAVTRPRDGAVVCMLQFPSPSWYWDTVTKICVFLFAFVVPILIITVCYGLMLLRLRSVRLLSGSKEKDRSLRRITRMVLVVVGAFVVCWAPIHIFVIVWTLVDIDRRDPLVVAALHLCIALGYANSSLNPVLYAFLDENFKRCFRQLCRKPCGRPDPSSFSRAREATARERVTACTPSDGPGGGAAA

rat μ-opioid receptors (rMOR), sequence (P33535 whole entry): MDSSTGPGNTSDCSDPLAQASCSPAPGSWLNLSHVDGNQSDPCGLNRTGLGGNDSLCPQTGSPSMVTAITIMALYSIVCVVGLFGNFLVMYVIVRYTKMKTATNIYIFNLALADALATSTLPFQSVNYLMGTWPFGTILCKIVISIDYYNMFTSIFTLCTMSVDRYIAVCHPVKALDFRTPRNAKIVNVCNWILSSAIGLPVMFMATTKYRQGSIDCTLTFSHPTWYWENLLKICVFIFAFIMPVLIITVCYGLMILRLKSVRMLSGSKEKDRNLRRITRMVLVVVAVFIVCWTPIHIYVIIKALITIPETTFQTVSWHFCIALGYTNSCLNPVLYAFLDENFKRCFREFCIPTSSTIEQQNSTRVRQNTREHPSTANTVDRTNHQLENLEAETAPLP
δ opioid receptors, sequence (P32300 whole entry): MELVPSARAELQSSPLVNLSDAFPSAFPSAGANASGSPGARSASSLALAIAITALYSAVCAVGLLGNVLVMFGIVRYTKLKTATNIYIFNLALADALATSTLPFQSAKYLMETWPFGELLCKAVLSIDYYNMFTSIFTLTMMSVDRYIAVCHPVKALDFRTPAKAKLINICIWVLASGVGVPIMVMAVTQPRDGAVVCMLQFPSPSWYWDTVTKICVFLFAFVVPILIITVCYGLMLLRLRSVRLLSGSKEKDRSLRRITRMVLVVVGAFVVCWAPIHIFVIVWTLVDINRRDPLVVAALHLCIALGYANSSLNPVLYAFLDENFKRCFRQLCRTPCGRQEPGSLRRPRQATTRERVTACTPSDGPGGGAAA
μ opioid receptors, sequence (P97266 whole entry, looked up): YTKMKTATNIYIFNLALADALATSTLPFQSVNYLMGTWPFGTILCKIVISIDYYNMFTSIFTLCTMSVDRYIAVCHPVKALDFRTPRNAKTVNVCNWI

Molecule CCC(=O)N(CC1CCCCN1Cc1ccc2c(c1)CCC[C@H]2N(C(=O)CCNC(=O)[C@H](Cc1ccccc1)NC(=O)CNC(=O)[C@@H](C)NC(=O)[C@@H](N)Cc1c(C)cc(O)cc1C)C(=O)CCNC(=O)[C@H](Cc1ccccc1)NC(=O)CNC(=O)[C@@H](C)NC(=O)[C@@H](N)Cc1c(C)cc(O)cc1C)c1ccc(F)c(F)c1 (stereo partly drawn) [Compound 10] has an IC50 [1] of 2.1 ± 0.45 nM, an IC50 [2] of 6.1 ± 1.5 nM and an IC50 [3] of 1.29 nM. It also gave a Ki [3] of 0.6 nM, an IC50 [4] of 1.41 nM and a Ki [4] of 0.6 nM.
